The values below come from patent publication US20220251141A1, “IMMUNOMODULATORS” (Bristol-Myers Squibb Company, priority 2019, published 2022).

Numbered stars: 1 amine (or outer) side, 2 acyl side, 3 side chain; on linkers, the order of the positions; unused ones are H or OH. Bridge positions count the residues as written; N and C are the ends. Square brackets hold non-standard residues; d marks the D form. Side chains are listed from the residue outwards. Peptide text beside a SMILES is read from it. * marks the point of attachment. Trp(1-CH2CO2Me) = COC(=O)Cn1cc(C[C@H](N)C(=O)O)c2ccccc21; Trp(1-CH2COOH) = N[C@@H](Cc1cn(CC(=O)O)c2ccccc12)C(=O)O; NHCH2CH2Ph(3,4-OCH2O) = c1cc2c(cc1CCN*)OCO2; Trp(1-Me) = Cn1cc(C[C@H](N)C(=O)O)c2ccccc21; Phe(4-F) = N[C@@H](Cc1ccc(F)cc1)C(=O)O; Octyloxycarbonyl = CCCCCCCCOC(=O)*; Hyp = O=C(O)[C@@H]1C[C@@H](O)CN1; NMeNle = CCCC[C@H](NC)C(=O)O; Pen = CC(C)(S)[C@H](N)C(=O)O; Decanoyl = CCCCCCCCCC(=O)*; NMeC = CN[C@@H](CS)C(=O)O; Pip = O=C(O)[C@@H]1CCCCN1; NMeA = CN[C@@H](C)C(=O)O; Dab = NCC[C@H](N)C(=O)O; Dap = NC[C@H](N)C(=O)O; Hexanoyl = CCCCCC(=O)*; NH(heptyl) = CCCCCCCN*; X10 = CC(C)(C)SC(=O)*; CO = O=C([*:1])[*:2]; Piv = CC(C)(C)C(=O)*; Moc = COC(=O)*

As usually defined, the IC50 is the concentration at which inhibition is half-maximal.

The assay deals with T1, PD-1/PD-L1 (Homo sapiens, UniProt Q9NZQ7).
T1 construct: TVMV protease site linker (C); made in house; host or cells: HEK293T cells
The experiment in a line: PD-1/PD-L1 Homogenous Time-Resolved Fluorescence (HTRF) binding assay. The settings on record: PD-L1-His 10 nM final, PD-1-Ig 20 nM final; inhibitors pre-incubated with PD-L1-His for 15 m. Summed up: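 Compounds pre-incubated 15 min with human PD-L1(18-239)-His (10 nM final), then PD-1(25-167)-Ig (20 nM final) added for 15 min, in dPBS with 0.1% BSA and 0.05% Tween-20. Eu-cryptate anti-Ig (1 nM) and APC anti-His (20 nM) added, 30 min equilibration, 665/620 nm ratio read; IC50 reported.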
In general terms: Time-resolved FRET reads energy transfer from a long-lived donor to a nearby acceptor.
On to `CCCC[C@H]1C(=O)N(C)[C@@H](CCCC)C(=O)N[C@@H](CCC(=O)O)C(=O)N[C@H](C(N)=O)CSCC(=O)N[C@@H](Cc2ccc(F)cc2)C(=O)N2CCCC[C@H]2C(=O)N[C@@H](CC(=O)O)C(=O)N2CCC[C@H]2C(=O)N[C@@H](CNC(=O)C(C)(C)C)C(=O)N[C@@H](CC(C)C)C(=O)N2C[C@H](O)C[C@H]2C(=O)N[C@@H](Cc2c[nH]c3ccccc23)C(=O)N[C@@H](CCNC(=O)C(C)(C)C)C(=O)N[C@@H](Cc2cn(C)c3ccccc23)C(=O)N1C` [Example 20290] ({CH2CO}-[Phe(4-F)][Pip]DP[Dap](Piv)L[Hyp]W[Dab](Piv)[Trp(1-Me)][NMeNle][NMeNle]EC-NH2; thioether N-14), for which the IC50 was 70.1 nM.

For `CCCC[C@H]1C(=O)N(C)[C@@H](CCCC)C(=O)N[C@@H](CC(C)C)C(=O)N[C@H](C(=O)NCC(N)=O)CSCC(=O)N[C@@H](Cc2ccc(O)cc2)C(=O)N(C)[C@@H](C)C(=O)N[C@@H](CC(N)=O)C(=O)N2CCC[C@H]2C(=O)N[C@@H](CNC(=O)SC(C)(C)C)C(=O)N[C@@H](CC(C)C)C(=O)N2C[C@H](O)C[C@H]2C(=O)N[C@@H](Cc2c[nH]c3ccccc23)C(=O)N[C@@H](CCNC(=O)OC)C(=O)N[C@@H](Cc2cn(CC(=O)O)c3ccccc23)C(=O)N1C` [Example 1024] ({CH2CO}-Y[NMeA]NP[Dap](X10)L[Hyp]W[Dab](Moc)[Trp(1-CH2COOH)][NMeNle][NMeNle]LCG-NH2; thioether N-14), the IC50 worked out at 4.7 nM.

Molecule `CCCC[C@H]1C(=O)N(C)[C@@H](CCCC)C(=O)N[C@@H](CC(C)C)C(=O)N[C@H](C(N)=O)C(C)(C)SCC(=O)N[C@@H](Cc2ccc(F)cc2)C(=O)N2CCCC[C@H]2C(=O)N[C@@H](CC(=O)O)C(=O)N2CCC[C@H]2C(=O)N[C@@H](CNC(=O)C(C)(C)C)C(=O)N[C@@H](CC(C)C)C(=O)N2C[C@H](O)C[C@H]2C(=O)N[C@@H](Cc2c[nH]c3ccccc23)C(=O)N[C@@H](CCNC(=O)C(C)(C)C)C(=O)N[C@@H](Cc2cn(CC(=O)O)c3ccccc23)C(=O)N1C` [Example 20180] ({CH2CO}-[Phe(4-F)][Pip]DP[Dap](Piv)L[Hyp]W[Dab](Piv)[Trp(1-CH2COOH)][NMeNle][NMeNle]L[Pen]-NH2; thioether N-14) registered an IC50 of 14.1 nM.

For the molecule `CCCC[C@H]1C(=O)N(C)[C@@H](CCCC)C(=O)N[C@@H](CC(C)C)C(=O)N[C@H](C(N)=O)CSCC(=O)N[C@@H](Cc2ccc(F)cc2)C(=O)N2CCCC[C@H]2C(=O)N[C@@H](CC(N)=O)C(=O)N2CCC[C@H]2C(=O)N[C@@H](CNC(=O)C(C)(C)C)C(=O)N[C@@H](CC(C)C)C(=O)N2C[C@H](O)C[C@H]2C(=O)N[C@@H](Cc2c[nH]c3ccccc23)C(=O)N[C@@H](CCN)C(=O)N[C@@H](Cc2cn(C)c3ccccc23)C(=O)N1C` [Example 20260] ({CH2CO}-[Phe(4-F)][Pip]NP[Dap](Piv)L[Hyp]W[Dab][Trp(1-Me)][NMeNle][NMeNle]LC-NH2; thioether N-14), the IC50 stood at 28.9 nM.

In turn, `CCCCCC(=O)NCC[C@@H]1NC(=O)[C@H](Cc2c[nH]c3ccccc23)NC(=O)[C@@H]2C[C@@H](O)CN2C(=O)[C@H](CC(C)C)NC(=O)[C@H](CNC(=O)CCCCC)NC(=O)[C@@H]2CCCN2C(=O)[C@H](CC(N)=O)NC(=O)[C@H](C)N(C)C(=O)[C@H](Cc2ccc(O)cc2)NC(=O)CSC[C@@H](C(=O)NCC(N)=O)NC(=O)[C@H](CC(C)C)NC(=O)[C@H](CCCC)N(C)C(=O)[C@H](CCCC)N(C)C(=O)[C@H](Cc2cn(CC(=O)OC)c3ccccc23)NC1=O` [Example 1006] ({CH2CO}-Y[NMeA]NP[Dap](Hexanoyl)L[Hyp]W[Dab](Hexanoyl)[Trp(1-CH2CO2Me)][NMeNle][NMeNle]LCG-NH2; thioether N-14) gave an IC50 of 22 nM.

`CCCC[C@H]1C(=O)N(C)[C@@H](CCCC)C(=O)N[C@@H](CC(C)C)C(=O)N[C@H](C(=O)NCC(N)=O)CSCC(=O)N[C@@H](Cc2ccc(O)cc2)C(=O)N(C)[C@@H](C)C(=O)N[C@@H](CC(N)=O)C(=O)N2CCC[C@H]2C(=O)N[C@@H](CNC(=O)NCCc2ccc3c(c2)OCO3)C(=O)N[C@@H](CC(C)C)C(=O)N2C[C@H](O)C[C@H]2C(=O)N[C@@H](Cc2c[nH]c3ccccc23)C(=O)N[C@@H](CCNC(=O)NCCc2ccc3c(c2)OCO3)C(=O)N[C@@H](Cc2cn(CC(=O)O)c3ccccc23)C(=O)N1C` [Example 1048] ({CH2CO}-Y[NMeA]NP[Dap]([CO-NHCH2CH2Ph(3,4-OCH2O)])L[Hyp]W[Dab]([CO-NHCH2CH2Ph(3,4-OCH2O)])[Trp(1-CH2COOH)][NMeNle][NMeNle]LCG-NH2; thioether N-14) returned an IC50 of 1.1 nM.

`CCCC[C@H]1C(=O)N(C)[C@@H](CCCC)C(=O)N[C@@H](CC(C)C)C(=O)N[C@H](C(N)=O)CSCC(=O)N[C@@H](Cc2ccc(F)cc2)C(=O)N2CCCC[C@H]2C(=O)N[C@@H](CC(=O)O)C(=O)N2CCC[C@H]2C(=O)N[C@@H](CNC(=O)C(C)(C)C)C(=O)N[C@@H](CC(C)C)C(=O)N2C[C@H](O)C[C@H]2C(=O)N[C@@H](Cc2c[nH]c3ccccc23)C(=O)N[C@@H](CCN)C(=O)N[C@@H](Cc2cn(C)c3ccccc23)C(=O)N1C` [Example 20190] ({CH2CO}-[Phe(4-F)][Pip]DP[Dap](Piv)L[Hyp]W[Dab][Trp(1-Me)][NMeNle][NMeNle]LC-NH2; thioether N-14) displayed an IC50 of 14.2 nM.

`CCCCCCCCCC(=O)NCC[C@@H]1NC(=O)[C@H](Cc2c[nH]c3ccccc23)NC(=O)[C@@H]2C[C@@H](O)CN2C(=O)[C@H](CC(C)C)NC(=O)[C@H](CNC(=O)CCCCCCCCC)NC(=O)[C@@H]2CCCN2C(=O)[C@H](CC(N)=O)NC(=O)[C@H](C)N(C)C(=O)[C@H](Cc2ccc(O)cc2)NC(=O)CSC[C@@H](C(=O)NCC(N)=O)NC(=O)[C@H](CC(C)C)NC(=O)[C@H](CCCC)N(C)C(=O)[C@H](CCCC)N(C)C(=O)[C@H](Cc2cn(CC(=O)O)c3ccccc23)NC1=O` [Example 1003] ({CH2CO}-Y[NMeA]NP[Dap](Decanoyl)L[Hyp]W[Dab](Decanoyl)[Trp(1-CH2COOH)][NMeNle][NMeNle]LCG-NH2; thioether N-14): the IC50 amounted to 37 nM.

Regarding `CCCCCCCNC(=O)NCC[C@@H]1NC(=O)[C@H](Cc2c[nH]c3ccccc23)NC(=O)[C@@H]2C[C@@H](O)CN2C(=O)[C@H](CC(C)C)NC(=O)[C@H](CNC(=O)NCCCCCCC)NC(=O)[C@@H]2CCCN2C(=O)[C@H](CC(N)=O)NC(=O)[C@H](C)N(C)C(=O)[C@H](Cc2ccc(O)cc2)NC(=O)CSC[C@@H](C(=O)NCC(N)=O)NC(=O)[C@H](CC(C)C)NC(=O)[C@H](CCCC)N(C)C(=O)[C@H](CCCC)N(C)C(=O)[C@H](Cc2cn(CC(=O)OC)c3ccccc23)NC1=O` [Example 2003] ({CH2CO}-Y[NMeA]NP[Dap]([CO-NH(heptyl)])L[Hyp]W[Dab]([CO-NH(heptyl)])[Trp(1-CH2CO2Me)][NMeNle][NMeNle]LCG-NH2; thioether N-14), the IC50 was found to be 24 nM.

`CCCC[C@H]1C(=O)N(C)[C@@H](CCCC)C(=O)N[C@@H](CC(C)C)C(=O)N(C)[C@H](C(N)=O)CSCC(=O)N[C@@H](Cc2ccc(F)cc2)C(=O)N2CCCC[C@H]2C(=O)N[C@@H](CC(=O)O)C(=O)N2CCC[C@H]2C(=O)N[C@@H](CN)C(=O)N[C@@H](CC(C)C)C(=O)N2C[C@H](O)C[C@H]2C(=O)N[C@@H](Cc2c[nH]c3ccccc23)C(=O)N[C@@H](CCN)C(=O)N[C@@H](Cc2cn(CC(=O)O)c3ccccc23)C(=O)N1C` [Example 10003] ({CH2CO}-[Phe(4-F)][Pip]DP[Dap]L[Hyp]W[Dab][Trp(1-CH2COOH)][NMeNle][NMeNle]L[NMeC]-NH2; thioether N-14): the IC50 amounted to 12 nM.

The molecule `CCCCCCCCOC(=O)NCC[C@@H]1NC(=O)[C@H](Cc2c[nH]c3ccccc23)NC(=O)[C@@H]2C[C@@H](O)CN2C(=O)[C@H](CC(C)C)NC(=O)[C@H](CNC(=O)OCCCCCCCC)NC(=O)[C@@H]2CCCN2C(=O)[C@H](CC(N)=O)NC(=O)[C@H](C)N(C)C(=O)[C@H](Cc2ccc(O)cc2)NC(=O)CSC[C@@H](C(=O)NCC(N)=O)NC(=O)[C@H](CC(C)C)NC(=O)[C@H](CCCC)N(C)C(=O)[C@H](CCCC)N(C)C(=O)[C@H](Cc2cn(CC(=O)OC)c3ccccc23)NC1=O` [Example 1013] ({CH2CO}-Y[NMeA]NP[Dap](Octyloxycarbonyl)L[Hyp]W[Dab](Octyloxycarbonyl)[Trp(1-CH2CO2Me)][NMeNle][NMeNle]LCG-NH2; thioether N-14) gave an IC50 of 1100 nM.

The molecule `CCCC[C@H]1C(=O)N(C)[C@@H](CCCC)C(=O)N[C@@H](CC(C)C)C(=O)N[C@H](C(N)=O)CSCC(=O)N[C@@H](Cc2ccc(F)cc2)C(=O)N2CCCC[C@H]2C(=O)N[C@@H](CC(N)=O)C(=O)N2CCC[C@H]2C(=O)N[C@@H](CNC(=O)C(C)(C)C)C(=O)N[C@@H](CC(C)C)C(=O)N2C[C@H](O)C[C@H]2C(=O)N[C@@H](Cc2c[nH]c3ccccc23)C(=O)N[C@@H](CCNC(=O)C(C)(C)C)C(=O)N[C@@H](Cc2cn(CC(=O)O)c3ccccc23)C(=O)N1C` [Example 20200] ({CH2CO}-[Phe(4-F)][Pip]NP[Dap](Piv)L[Hyp]W[Dab](Piv)[Trp(1-CH2COOH)][NMeNle][NMeNle]LC-NH2; thioether N-14) displayed an IC50 of 15.8 nM.

Turning to `CCCC[C@H]1C(=O)N(C)[C@@H](CCCC)C(=O)N[C@@H](CC(C)C)C(=O)N[C@H](C(=O)NCC(N)=O)CSCC(=O)N[C@@H](Cc2ccc(O)cc2)C(=O)N(C)[C@@H](C)C(=O)N[C@@H](CC(N)=O)C(=O)N2CCC[C@H]2C(=O)N[C@@H](CNC(=O)SC(C)(C)C)C(=O)N[C@@H](CC(C)C)C(=O)N2C[C@H](O)C[C@H]2C(=O)N[C@@H](Cc2c[nH]c3ccccc23)C(=O)N[C@@H](CCNC(=O)SC(C)(C)C)C(=O)N[C@@H](Cc2cn(CC(=O)OC)c3ccccc23)C(=O)N1C` [Example 1025] ({CH2CO}-Y[NMeA]NP[Dap](X10)L[Hyp]W[Dab](X10)[Trp(1-CH2CO2Me)][NMeNle][NMeNle]LCG-NH2; thioether N-14), the IC50 came to 6 nM.
